Test results as given in patent US9339491B2, “Use of a pyrazole derivative in the treatment of acute exacerbations of chronic obstructive pulmonary disease” (Mereo BioPharma 1 Limited, priority 2012, dated 2016).

Legend:
[1] = system: patients who have an acute COPD exacerbation; assay: Clinical study in acute COPD exacerbation: dyspnea by Borg CR 10 scores; format: in vivo, human; set-up: AUC[days 2-14] in Borg CR 10 scores, Difference LS mean, Compound A - prednisone / AUC[days 2-14] in Borg CR 10 scores (adjusted for Day 1), LS mean / AUC[days 2-14] in Borg CR 10 scores, Difference LS mean, treatment - placebo: unit not given beside the values; details: for AUC[days 2-14] in Borg CR 10 scores (adjusted for Day 1), LS mean: per treatment arm; for AUC[days 2-14] in Borg CR 10 scores, Difference LS mean, treatment - placebo: versus placebo
Method: “BORG Score” as used herein refers to a measurement of dyspnea in accordance with the Borg scale. On that scale 0 represents no breathlessness at all and 10 represents maximum breathlessness.
(§1) An exploratory, randomized, double-blind, placebo controlled, multi-center study to assess the efficacy, safety and tolerability of a single 75 mg dose of 3-[5-amino-4-(3-cyano-benzoyl)-pyrazol-1-yl]-N-cyclopropyl-4-methylbenzamide administered orally to patients who have an acute COPD exacerbation
(§2) The efficacy, safety and tolerability of a single 75 mg dose of 3-[5-amino-4-(3-cyano-benzoyl)-pyrazol-1-yl]-N-cyclopropyl-4-methylbenzamide (Compound A) administered orally to patients who have an acute COPD exacerbation was conducted.
(§3) 90 patients were randomized 1:1:1 to three treatment arms.
(§4) =single 75 mg dose of Compound A on day 1+prednisone placebo×10 days
(§5) =single dose of Compound A placebo on day 1+prednisone placebo×10 days
(§6) =single dose of Compound A placebo on day 1+40 mg oral prednisone […]×10 days
(§7) =doxycycline 100 mg dose×10 days or a non-macrolide antibiotic concurrent with local prescribing antibiotic guidelines.
(§8) Key efficacy endpoints: • FEV1 improvement from baseline at Day 5 • BORG Scores • EXACT PRO: • Recovery defined as reduction in EXACT score ≧9 points benchmarked against the maximum observed score (MOV: highest EXACT score using a 3-day rolling average) over the 14 day period following onset. • Time to recovery • Severity • Maximum severity—highest exact score over 30 days • Total severity—area under the curve from onset (i.e. Day 1) to recovery/Day 30 whichever comes first based on total exact score. • Duration of exacerbation (days from onset to recovery/Day 30) • Frequency of patients who recovered at Day 30 • Treatment failure: • Patients who were treated with oral corticosteroids, admitted to hospital to COPD related symptoms, changed in antibiotic therapy relating to COPD, or in the attending physicians opinion needed treatment for a further exacerbation.
LS is an abbreviation for least squares.

[2] = system: patients who have an acute COPD exacerbation; assay: Clinical study in acute COPD exacerbation: treatment failure composite endpoint; format: in vivo, human; details: retreatment with antibiotics, oral steroids, death, hospitalization or treatment indicating another exacerbation
Method: as §1, §2, §3, §4, §5, §6
=doxycycline 100 mg dose×10 days or a non-macrolide antibiotic concurrent with local prescribing antibiotic guidelines. […]

[3] = system: patients who have an acute COPD exacerbation; assay: Clinical study in acute COPD exacerbation: efficacy measured by FEV1; format: in vivo, human; details: for FEV1 change from baseline, Difference, Compound A v prednisone: single 75 mg oral Compound A v 40 mg oral prednisone x 10 days; for FEV1 change from baseline, Difference, Compound A v placebo: single 75 mg oral dose of Compound A, ANCOVA repeated measurements
Method: “Forced Expiratory Volume in One Second” or “FEV1” as used herein is the volume of air that can forcibly be blown out in one second, after full inspiration, which is measured by a spirometer. It is a measure of lung function or performance. Average values for FEV1 in healthy people depend mainly on sex and age. Values of between 80% and 120% of the average value are considered normal.
as §1, §2
Primary objective: Assess the efficacy of a single 75 mg dose of Compound A in COPD patients presenting with an exacerbation as measured by the improvement in FEV1 over the first 5 days of treatment relative to placebo.
as §3, §4, §5, §6, §7
Visits at Days 3, 5 and 14 and follow-up visits 30 and 90 days. End of study visit at 6 months.
(§9) Present data (at 2nd interim) includes total of 91 randomized patients with 30 days of follow-up.
Inclusion criteria for the study population were: • Males/females ≧40 to ≦80 years • GOLD stages 2 to 4 • Smoking history at least 10 pack years • Investigator defined COPD exacerbation
Exclusion criteria for the study population were: • Arterial blood pH <7.26 at randomization • History or presence of clinically uncontrolled left heart failure • Clinical or radiological evidence of pneumonia • Long term Oxygen >15 hours a day • History of clinically significant ECG abnormalities • History or presence of impaired renal function • Use of macrolide antibiotics within 48 hours of randomization
as §8
FEV1 change from baseline analysed with ANCOVA ([…]) model for repeated measurements. Estimated between patient standard deviation—200 ml.

[4] = system: patients who have an acute COPD exacerbation; assay: Clinical study in acute COPD exacerbation: safety and tolerability (adverse events); format: in vivo, human
Method: as §1, §2
Secondary objectives: Safety and tolerability, patient reported outcomes, and time to next exacerbation.
as §3, §4, §5, §6, §7
Initial hospitalization for COPD exacerbation at baseline was not recorded as a serious adverse event (SAE). Only subsequent admissions were recorded. […] No rash was noted. No unusual events or imbalances between treatment arms were noted.

[5] = system: patients who have an acute COPD exacerbation; assay: Clinical study in acute COPD exacerbation: patient disposition / discontinuation; format: in vivo; details: for Reason for discontinuation: Death: 2nd interim, 30 days of follow-up, Compound A N = 31, Prednisone N = 30; for Reason for discontinuation: Adverse Events: human, in vivo
Method: as §1, §2, §3, §4, §5, §6, §7, §9

[6] = Compound A N = 31, Prednisone N = 30

Question: What does the source list for `Cc1ccc(C(=O)NC2CC2)cc1-n1ncc(C(=O)c2cccc(C#N)c2)c1N` [Compound A, 3-[5-Amino-4-(3-cyanobenzoyl)-pyrazol-1-yl]-N-cyclopropyl-4-methylbenzamide]?
Answer: Breathlessness over 14 days compared with prednisone ([1]; over 14 days): on average less breathless; AUC[days 2-14] in Borg CR 10 scores (adjusted for Day 1), LS mean ([1]; days 2-14): 3.25; AUC[days 2-14] in Borg CR 10 scores, Difference LS mean, treatment - placebo ([1]; days 2-14, adjusted for Day 1): −0.23; AUC[days 2-14] in Borg CR 10 scores, Difference LS mean, Compound A - prednisone ([1]; versus prednisone, days 2-14, adjusted for Day 1): −0.36; Treatment failures (composite endpoint) [2]: 0 patients; Improvement in FEV1 versus placebo and prednisone ([3]; Day 3): greater improvement in FEV1; FEV1 change from baseline, Difference, Compound A v prednisone ([3]; Day 3): 102.28 mL; FEV1 change from baseline, Difference, Compound A v placebo ([3]; Day 3): 119.59 mL; FEV1 change from baseline, Difference, Compound A v prednisone ([3]; Day 5): 109.15 mL; FEV1 change from baseline, Difference, Compound A v placebo ([3]; Day 5): 46.56 mL; Patients who responded with >100 ml improvement (FEV1) ([3]; day 3, single 75 mg oral dose): 60%; COPD adverse events ([4]; human, in vivo): No COPD adverse events were observed; Number of subjects with AE: Abdominal pain upper ([4]; human, in vivo): 1 (3.2) n (%); Number of subjects with AE: Any AE ([4]; human, in vivo): 8 (25.8) n (%); Number of subjects with AE: COPD ([4]; human, in vivo): 0 (0.0) n (%); Number of subjects with AE: Diarrhoea ([4]; human, in vivo): 1 (3.2) n (%); Number of subjects with AE: Dizziness ([4]; human, in vivo): 2 (6.5) n (%); Number of subjects with AE: Headache ([4]; human, in vivo): 1 (3.2) n (%); Number of subjects with AE: Nasopharyngitis ([4]; human, in vivo): 1 (3.2) n (%); Number of subjects with AE: Nausea ([4]; human, in vivo): 0 (0.0) n (%); Number of subjects with AE: Occult blood ([4]; human, in vivo): 1 (3.2) n (%); Number of subjects with AE: Vertigo ([4]; human, in vivo): 1 (3.2) n (%); Safety and tolerability ([4]; human, in vivo): safe and well tolerated; Reason for discontinuation: Death [5]: 0 (0.0) n (%); Reason for discontinuation: Adverse Events ([5]; 30 days): 0 (0.0) n (%)

Question: Which results are given for `C[C@]12C=CC(=O)C=C1CC[C@@H]1[C@@H]2C(=O)C[C@@]2(C)[C@H]1CC[C@]2(O)C(=O)CO` [Prednisone, prednisone, reference compound]?
Answer: AUC[days 2-14] in Borg CR 10 scores (adjusted for Day 1), LS mean ([1]; days 2-14): 3.61; AUC[days 2-14] in Borg CR 10 scores, Difference LS mean, treatment - placebo ([1]; days 2-14, adjusted for Day 1): 0.13; Number of subjects with AE: Abdominal pain upper [4, 6]: 1 (3.3) n (%); Number of subjects with AE: Any AE [4, 6]: 12 (40.0) n (%); Number of subjects with AE: COPD [4, 6]: 5 (16.7) n (%); Number of subjects with AE: Diarrhoea [4, 6]: 0 (0.0) n (%); Number of subjects with AE: Dizziness [4, 6]: 0 (0.0) n (%); Number of subjects with AE: Headache [4, 6]: 3 (10.0) n (%); Number of subjects with AE: Nasopharyngitis [4, 6]: 1 (3.3) n (%); Number of subjects with AE: Nausea [4, 6]: 2 (6.7) n (%); Number of subjects with AE: Occult blood [4, 6]: 1 (3.3) n (%); Number of subjects with AE: Vertigo [4, 6]: 1 (3.3) n (%); Reason for discontinuation: Death [5]: 2 (6.7) n (%); Reason for discontinuation: Adverse Events [5]: 0 (0.0) n (%)
